Assay results published in a melting point compilation (Tetko et al.; mined from patent text by program, amines drawn as free bases though some values may be those of a salt).

Compound | melting point [°C]
Cc1cccc(NC(=O)NCCC(=O)O)c1 | 166
COC(CN(C)C(=O)Nc1nnc(C(C)Oc2ccc(Cl)cc2)s1)OC (configuration not stated) | 116 to 118
N#CC(C#N)CC(CC(F)(F)C(F)(F)C(F)(F)C(F)F)S(=O)(=O)C(F)(F)F (configuration not stated) | 144 to 146
CC(=O)Nc1cccc2c1C(=O)c1c-2n[nH]c1-c1ccc(N(C)C)cc1 | > 300
CCCCc1cn(-c2cccn2CC)c(=O)n1Cc1ccc(-c2ccccc2-c2nnn[nH]2)nc1 | 174 to 175
COc1cc(Br)c(Br)cc1C=NNC(=N)NN=Cc1cc(Br)c(Br)cc1OC | 265 to 267
CCc1nnc2ccc(-c3ccc(C(F)(F)F)cc3)nn12 | 194 to 196
c1csc(-c2cnc(COc3ccc(CCCn4ccnc4)cc3)s2)c1 | 82 to 84
Cc1nc[nH]c1CSCCNC(N)=C[N+](=O)[O-] | 193 to 195
CC(C)c1cccc(C(C)C)c1NC(=O)CNC(c1ccccc1)c1ccc([N+](=O)[O-])cc1 (configuration not stated) | 177 to 179
CN1CCC(C2Nc3cc(Br)ccc3N3CCc4cccc2c43)CC1 (configuration not stated) | 206 to 208
COc1cc(C)c(Cl)cc1C(=O)Cl | 106 to 107
Nc1ccc(-c2c(Cc3ccccc3)sc3ncnc(N)c23)cc1 | 208 to 210
Nc1nc2ccccc2c2c1ncn2CCCCS(=O)(=O)c1ccccc1 | 175 to 177
O=C1Nc2cc(Cl)ccc2OC1CCO (configuration not stated) | 135 to 138
COC(=O)CCCc1cc2nc(Cl)ccc2n1S(=O)(=O)c1cccc2nccnc12 | 71
COc1cc(Nc2c(C#N)cnc3cc(C#Cc4ccccn4)sc23)c(Cl)cc1Cl | 237 to 239
O=C1Nc2ccccc2C1CCCCN1CC=C(c2ccc(Cl)cc2)CC1 (configuration not stated) | 122 to 124
CC(Cc1ccccc1)(C(=NC#N)NCCc1ccccc1)c1ccccn1 (configuration not stated) | 162 to 164
CCCCn1c(=O)n(CC=C(C)C)c(=O)c2c1ncn2S(=O)(=O)c1ccc(OC)c(OC)c1 | 92 to 95
CC1(CC(=O)Nc2cccc3ncccc23)CCCCC1 | 133 to 135
CC(=NO)c1ccnc(N)c1 | 215 to 217
CCCCCCC(=O)c1ccc(OCCN2CCN(c3cc(Cl)nnc3Cl)CC2)cc1 | 113 to 115
NC(=O)C1CCN(CCO)CC1 | 141 to 142

Compound | melting point [°C]
CCCOc1cc(C)c(Cl)c2c(=O)c3ccccc3sc12 | 116 to 118
ON=Cc1ccc2c(c1)COC2c1ccc(F)cc1 (configuration not stated) | 158 to 159
COc1ccc(CONS(=O)(=O)c2ccc(C)cc2)cc1 | 109 to 111
CC(C)(C)OC(=O)NCCc1ccc(O)cc1 | 61 to 62
Cc1cc(C)cc(-c2[nH]c3ccc(C(C)(C)C(=O)O)cc3c2CCN(CCCCc2ccc(NS(C)(=O)=O)cc2)C(=O)OCc2ccccc2)c1 | > 102
CCc1cc2c(Sc3ccccn3)ncnc2s1 | 76.5 to 79
CC1=Nc2cc(Cl)c(S)cc2S(=O)(=O)N1 | 304 to 305
O=[N+]([O-])c1ccc2ccn(CCCCl)c2c1 | 85 to 87
Clc1ccc2c(c1)-c1[nH]ncc1CS2 | 205 to 206
O=C(Nc1ccc2cc(CN3CCCC3)cnc2c1F)c1ccc(-c2ccc(F)cc2)cc1 | 178
CO/C=C(/C(=O)OC)c1ccccc1Oc1cc(OCc2ccc([N+](=O)[O-])cc2)ncn1 | 96 to 98
Cn1c(=O)c(Oc2c(F)cccc2F)cc2cnc(S(C)(=O)=O)nc21 | 215 to 216
CCCCCCC(=O)c1cn(CCCC(=O)O)c2ccccc12 | 58 to 60
Cc1ccc(OCC(=O)c2cc(C(C)C)c(O)c(C(C)C)c2)cc1 | 124 to 125
C=C(CCCC(=O)N1CCC[C@@H](C(=O)OC(C)(C)C)N1)C(=O)O | 86 to 88
CCC12CCC3c4ccc(OC)cc4C(C)CC3C1CCC21OCCO1 (configuration not stated) | 130 to 134
Cc1cccc(C)c1NC(=O)N1CCCN(C(C)C)C1 | 138 to 139
Cc1ccccc1CNc1cc(Br)cc2c1nc(C)n2C | 128 to 129
O=C(O)CCCc1ccc2c(c1)CCC2 | 57 to 58
O=C(O)CCCc1cc2nc(Cl)ccc2n1S(=O)(=O)c1ccc(C(F)(F)F)cc1 | 185
CNC(=O)[C@H]1CN(c2ccc3c(c2)sc(=O)n3C(C)C)C(=O)O1 | 172 to 174
CCNc1nc2ccc(CCc3cn4ccc(C)cc4n3)cc2o1 | 156 to 158
CCOC(=O)C(CC)n1c(NC(=O)c2cccs2)nc2cc(C(=O)N(C)C3CCCCC3)ccc21 (configuration not stated) | 82 to 84

Now from value to molecule:

melting point [°C] | Compound
152 to 153 | Cc1cccc(C(C)(C)CC(O)(C(=O)Nc2ccc3c(c2)COC3=O)C(F)(F)F)c1 (configuration not stated)
272 to 274 | COC1(c2ccc(C(C)C)cc2O)C(=O)c2ccccc2C1=O
133 to 134 | COC/C(=C1/SC(=O)NC1=O)c1cccc2ccccc12
128 | O=C(c1ccncc1)c1cc(-c2cccnc2)c(N2CCOCC2)s1
221 to 223 | Cc1cc(C(=O)NC2=NC(C)CC2(c2ccccc2)c2ccccc2)[nH]n1 (configuration not stated)
246 to 248 | COc1cc(C(=O)c2ccnc3ccccc23)cc([N+](=O)[O-])c1O
125 to 130 | CC(=O)OC1CSC(Oc2ccc(-c3ccccn3)cc2)C(OC(C)=O)C1OC(C)=O (configuration not stated)
155 to 157 | CC1(C)C=C(c2ccccn2)c2cc(C#N)ccc2OC1
158 to 161 | O=C(c1ccccc1)c1cc(Cl)cc2c1S(=O)(=O)CC2C(=O)O (configuration not stated)
233 | O=C(C=Cc1ccc2c(c1)OCO2)N1CCc2c([nH]c3ccccc23)C1c1ccc2c(c1)OCO2 (configuration not stated)
140 to 142 | COC(=O)c1cc(N)c(Oc2ccccc2)c(N)c1
191 to 193 | N#Cc1ccccc1NC(=O)c1snc(Cl)c1Cl
55 to 57 | Cc1cnccc1C(CCC(=O)O)C(=O)c1cccc(OCc2ccccc2)c1 (racemic)
120 to 123 | CCCCc1nc(Cl)c(C=O)n1Cc1ccc(-c2nc3ccccn3c2C(=O)O)cc1
167 to 168 | O=C(NS(=O)(=O)c1ccc(Oc2cccc(C(F)(F)F)c2)cc1)c1ccc(C(=O)NCCO)nc1
203 to 204 | COc1cccc2cc(C(=O)Oc3ccc(Cl)cn3)c(=O)oc12
116 to 118 | Clc1nc(-c2ccco2)nc2ccccc12
220 | O=C1OC(=O)c2cc3cc(Cl)ccc3cc21
100 to 101 | CCCCc1oc2ccc(C(=O)OC(C)C)cc2c1C(=O)c1ccc(OS(=O)(=O)C(F)(F)F)cc1
120 | O=c1oc2ccccc2nc1-c1cc(O)c(O)c([N+](=O)[O-])c1
212 | CC(=O)N1C(=O)N(c2cc(Cl)cc(Cl)c2)C(=O)C1=Cc1ccc(C#N)cc1
199 to 200 | CCC(=O)NCc1cccc(-c2nc(=O)c3ccccc3s2)n1
60 | OC(=S)CCc1ccccc1
148 to 149 | CCOC(=O)C1=C(C)NC(C)=C(C(=O)OCC)C1c1ccc(Cl)cc1Cl
75 to 77 | CSC(CC(=O)O)c1ccccc1 (configuration not stated)
